Test results taken from patent publication US20210222225A1, “Medium for Disk Diffusion Method to Evaluate Antibiotic Sensitivity” (priority 2018, published 2021).

Key:
[1] = system: PAE P1477_S; test: Colistin disk diffusion, guanidine hydrochloride medium, P1477_S; type: cell-based, Pseudomonas aeruginosa; conditions: 30% agar
Protocol: (§1) A concentration of agar particles (BD Diagnostic, Sparks, Md., USA) in Mueller-Hinton broth medium (BD Diagnostic) was adjusted to 5.1 g/L, which is 30% of 17 g/L, and guanidine hydrochloride was added to a concentration of 500 μg/ml, 50 μg/ml, or 5 μg/ml. Then, solidification was performed. On a surface of each medium thus prepared was evenly inoculated each of colistin-susceptible (S) or -resistant (R) Acinetobacter baumannii (ABA) strain, colistin-susceptible (S) or -resistant (R) Klebsiella pnemoniae (KPN) strain, and colistin-susceptible (S) or -resistant (R) Pseudomonas aeruginosa (PAE) strain, and a colistin disk was placed thereon. Then, pictures of a growth inhibition zone, which had been formed clear, around the disk were taken for each strain, and the results are illustrated in FIGS. 8 to 10.

[2] = system: Escherichia coli ATCC25922 strain; test: Colistin disk diffusion on modified Mueller-Hinton agar, ECO; type: cell-based; conditions: protamine 100 μg/ml
Protocol: (§2) To each MHA thus modified was added protamine (Sigma-Aldrich, St Louis, Mo., USA) at a concentration of 100 μg/ml, and solidification was performed. Then, on a surface of the medium was evenly inoculated each of colistin-susceptible (S) or -resistant (R) Acinetobacter calcoaceticus-baumannii complex (ACB) strain, Pseudomonas aeruginosa ATCC27853 strain, Escherichia coli ATCC25922 strain, and mcr-1-harboring Enterobacter aerogenes strain, and a colistin disk was placed thereon. Subsequently, a diameter of a growth inhibition zone (colistin inhibition zone), which had been formed clear by diffusion of colistin to the agar around the colistin disk, was measured.

[3] = system: KPN K3007_S; test: Colistin disk diffusion, guanidine hydrochloride medium, K3007_S; type: cell-based, Klebsiella pnemoniae; conditions: 30% agar
Protocol: as §1

[4] = system: colistin-susceptible (S) Acinetobacter calcoaceticus-baumannii complex (ACB) strain; test: Colistin disk diffusion on modified Mueller-Hinton agar, ACB-S; type: cell-based
Protocol: as §2
(§3) As in Example 1, a concentration of agar particles (BD Diagnostic, Sparks, Md., USA) in Mueller-Hinton broth medium (BD Diagnostic) was adjusted to 17 g/L or 5.1 g/L that is 30% of 17 g/L. To select a concentration of protamine, which can enhance diffusion of colistin from a disk without interfering with bacterial growth, while using the protamine at various concentrations, protamine (Sigma-Aldrich, St Louis, Mo., USA) was added to the medium at concentrations of 1 mg/ml, 700 μg/ml, 400 μg/ml, 300 μg/ml, 200 μg/ml, 150 μg/ml, 100 μg/ml, and 50 μg/ml. Each medium thus modified was solidified. Then, on a surface of each medium was evenly inoculated each of colistin-susceptible (S) or -resistant (R) Acinetobacter calcoaceticus-baumannii complex (ACB) strain, Pseudomonas aeruginosa ATCC27853 strain, and mcr-1-harboring Enterobacter aerogenes strain, and a colistin disk was placed thereon. Then, it was determined whether each strain was grown, and a diameter of a growth inhibition zone, which had been formed around the disk, was measured.

[5] = system: PAE P1624_R; test: Colistin disk diffusion, guanidine hydrochloride medium, P1624_R; type: cell-based, Pseudomonas aeruginosa; conditions: 30% agar
Protocol: as §1

[6] = system: KPN K4036_R; test: Colistin disk diffusion, guanidine hydrochloride medium, K4036_R; type: cell-based, Klebsiella pnemoniae; conditions: 30% agar
Protocol: as §1

[7] = system: mcr-1-harboring Enterobacter aerogenes strain; test: Colistin disk diffusion on modified Mueller-Hinton agar, mcr-1; type: cell-based
Protocol: as §2, §3

[8] = guanidine hydrochloride 5 μg/ml
[9] = guanidine hydrochloride 50 μg/ml
[10] = guanidine hydrochloride 500 μg/ml
[11] = 30% agar, protamine 1,000 μg/ml
[12] = 100% agar, protamine 1,000 μg/ml

## colistin
[1]; [8]
  Disk diffusion (mm): 16 mm
[1]; [9]
  Disk diffusion (mm): 16 mm
[1]; [10]
  Disk diffusion (mm): 14 mm
[2]; 30% agar
  Diameter (mm) of colistin inhibition zone: 16 mm
[2]; 40% agar
  Diameter (mm) of colistin inhibition zone: 14 mm
[2]; 50% agar
  Diameter (mm) of colistin inhibition zone: 14 mm
[2]; 60% agar
  Diameter (mm) of colistin inhibition zone: 14 mm
[2]; 70% agar
  Diameter (mm) of colistin inhibition zone: 14 mm
[2]; 80% agar
  Diameter (mm) of colistin inhibition zone: 14 mm
[2]; 90% agar
  Diameter (mm) of colistin inhibition zone: 13 mm
[2]; 100% agar
  Diameter (mm) of colistin inhibition zone: 13 mm
[3]; [8]
  Disk diffusion (mm): 17 mm
[3]; [9]
  Disk diffusion (mm): 16 mm
[3]; [10]
  Disk diffusion (mm): 16 mm
[4]; 30% agar, protamine 50 μg/ml
  Disk diffusion (mm): 14 mm
[4]; 30% agar, protamine 100 μg/ml
  Diameter (mm) of colistin inhibition zone: 16 mm
  Disk diffusion (mm): 15 mm
[4]; 30% agar, protamine 150 μg/ml
  Disk diffusion (mm): 15 mm
[4]; 30% agar, protamine 200 μg/ml
  Disk diffusion (mm): 14 mm
[4]; 30% agar, protamine 300 μg/ml
  Disk diffusion (mm): 6 mm
[4]; 30% agar, protamine 400 μg/ml
  Disk diffusion (mm): 6 mm
[4]; 30% agar, protamine 700 μg/ml
  Disk diffusion (mm): 6 mm
[4]; [11]
  Disk diffusion (mm): 6 mm
[4]; 40% agar, protamine 100 μg/ml
  Diameter (mm) of colistin inhibition zone: 15 mm
[4]; 50% agar, protamine 100 μg/ml
  Diameter (mm) of colistin inhibition zone: 13 mm
[4]; 60% agar, protamine 100 μg/ml
  Diameter (mm) of colistin inhibition zone: 13 mm
[4]; 70% agar, protamine 100 μg/ml
  Diameter (mm) of colistin inhibition zone: 13 mm
[4]; 80% agar, protamine 100 μg/ml
  Diameter (mm) of colistin inhibition zone: 12 mm
[4]; 90% agar, protamine 100 μg/ml
  Diameter (mm) of colistin inhibition zone: 12 mm
[4]; 100% agar, protamine 50 μg/ml
  Disk diffusion (mm): 13 mm
[4]; 100% agar, protamine 100 μg/ml
  Diameter (mm) of colistin inhibition zone: 12 mm
  Disk diffusion (mm): 12 mm
[4]; 100% agar, protamine 150 μg/ml
  Disk diffusion (mm): 13 mm
[4]; 100% agar, protamine 200 μg/ml
  Disk diffusion (mm): 12 mm
[4]; 100% agar, protamine 300 μg/ml
  Disk diffusion (mm): 13 mm
[4]; 100% agar, protamine 400 μg/ml
  Disk diffusion (mm): 14 mm
[4]; 100% agar, protamine 700 μg/ml
  Disk diffusion (mm): 10 mm
[4]; [12]
  Disk diffusion (mm): 6 mm
[5]; [8]
  Disk diffusion (mm): 12 mm
[5]; [9]
  Disk diffusion (mm): 12 mm
[5]; [10]
  Disk diffusion (mm): 12 mm
[6]; [8]
  Disk diffusion (mm): 16 mm
[6]; [9]
  Disk diffusion (mm): 16 mm
[6]; [10]
  Disk diffusion (mm): 14 mm
[7]; 30% agar, protamine 50 μg/ml
  Disk diffusion (mm): 9 mm
[7]; 30% agar, protamine 100 μg/ml
  Diameter (mm) of colistin inhibition zone: 11 mm
  Disk diffusion (mm): 9 mm
[7]; 30% agar, protamine 150 μg/ml
  Disk diffusion (mm): 9 mm
[7]; 30% agar, protamine 200 μg/ml
  Disk diffusion (mm): 8 mm
[7]; 30% agar, protamine 300 μg/ml
  Disk diffusion (mm): 6 mm
[7]; 30% agar, protamine 400 μg/ml
  Disk diffusion (mm): 6 mm
[7]; 30% agar, protamine 700 μg/ml
  Disk diffusion (mm): 6 mm
[7]; [11]
  Disk diffusion (mm): 6 mm
[7]; 40% agar, protamine 100 μg/ml
  Diameter (mm) of colistin inhibition zone: 10 mm
[7]; 50% agar, protamine 100 μg/ml
  Diameter (mm) of colistin inhibition zone: 11 mm
[7]; 60% agar, protamine 100 μg/ml
  Diameter (mm) of colistin inhibition zone: 10 mm
[7]; 70% agar, protamine 100 μg/ml
  Diameter (mm) of colistin inhibition zone: 10 mm
[7]; 80% agar, protamine 100 μg/ml
  Diameter (mm) of colistin inhibition zone: 9 mm
[7]; 90% agar, protamine 100 μg/ml
  Diameter (mm) of colistin inhibition zone: 10 mm
[7]; 100% agar, protamine 50 μg/ml
  Disk diffusion (mm): 9 mm
[7]; 100% agar, protamine 100 μg/ml
  Diameter (mm) of colistin inhibition zone: 10 mm
  Disk diffusion (mm): 9 mm
[7]; 100% agar, protamine 150 μg/ml
  Disk diffusion (mm): 10 mm
[7]; 100% agar, protamine 200 μg/ml
  Disk diffusion (mm): 9 mm
[7]; 100% agar, protamine 300 μg/ml
  Disk diffusion (mm): 10 mm
[7]; 100% agar, protamine 400 μg/ml
  Disk diffusion (mm): 8 mm
[7]; 100% agar, protamine 700 μg/ml
  Disk diffusion (mm): 10 mm
[7]; [12]
  Disk diffusion (mm): 6 mm
